# Measured values from patent publication US20210046084A1, “TREATMENT OF ADVANCED ESTROGEN RECEPTOR POSITIVE BREAST CANCER” (ESTETRA SPRL, priority 2018, published 2021).
# Read-outs that look alike come from different tables or passages of the source.
# Key:
# [1] = tested on: long term estrogen deprived MCF7 breast cancer cells (LTED cells); test: Growth of long term estrogen deprived MCF7 cells, cell count analysis; assay type: cell-based; conditions: for Cell number per well: LTED cells, count on Day 7, control 5.36
# Experimental: In order to assess the potential of an estetrol component to inhibit the growth of estrogen deprived breast cancer cells, in vitro studies in long term estrogen deprived MCF7 breast cancer cells (LTED cells) were conducted. LTED cells are deprived of estrogen, making them a suitable in vitro model to study drug effects in women who have been using estrogen activity suppressors for a long time.
# LTED cells were plated in 6-well plates at a density of 30,000 cells per well. The cells were maintained in phenol red free IMEM with 5% charcoal stripped FBS (DCC-FBS). On Day 3, the medium was replaced with fresh phenol red free IMEM with 5% DCC-FBS. The cells were then exposed to 6 different concentrations of estetrol ranging from 10^−12 M to 10^−7 M or to ethanol as vehicle control. The final vehicle concentration was 0.1% ethanol for all experiments. Each treatment was made in duplicate.
# On Day 5, the medium was changed and on Day 7 plates were subjected to a cell count analysis.
# [2] = Plasma levels and tolerability of estetrol after daily oral administration in female patients; assay type: in vivo, human; conditions: for Trough plasma level: average of Day 7 and Day 14; for Cmax: human, plasma, read-out: Cmax plasma level
# Experimental: For each group dosed at 2, 10, 20 and 40 mg estetrol daily (oral administration), 9 to 10 female patients were tested for their plasma content in estetrol at Day 7 and at Day 14. For each dose group, the average trough level of all patients across both days was calculated.
# [3] = tested on: ER+ locally advanced and/or metastatic breast cancer; test: Phase I/IIa dose-escalation study of E4 in advanced breast cancer (patient of Example 4); assay type: in vivo, human; conditions: 20 mg E4 per day oral, 12 weeks
# Experimental: An open-label, phase I/11a trial, dose-escalation study with a 3+3 cohort design is carried out to determine the recommended dose of E4 for the treatment of patients with advanced breast cancer. After completing the phase I part of the study (i.e. 4 weeks of treatment), patients receive further treatment for 8 weeks at their individual phase I dose level (phase IIa part of the study). Patients are treated for 12 weeks. Treatment continues after 12 weeks of treatment until the patient is withdrawn from the study either due to unacceptable adverse events (AEs) or disease progression. These patients are followed up according to clinical practice including radiological tumour assessments.
# In total at least 9 patients with ER+ locally advanced and/or metastatic breast cancer having exhausted all treatment options are enrolled in the study. Patients are at least 5 years postmenopausal and have failed anti-estrogen treatment with tamoxifen and aromatase inhibitor because the cancer has become resistant to treatment with tamoxifen or aromatase inhibitor, or because the patient has discontinued treatment due to unacceptable side-effects. No treatment with fulvestrant is allowed within 6 months prior to the start of the E4 treatment.
# • to assess quality of life in advanced breast cancer patients treated with E4, using specific questions on estrogen deficiency symptoms; • to assess preliminary anti-tumour response of E4 in patients with advanced breast cancer, according to RECIST 1.1 at the end of the study (i.e. after 12 weeks); • to assess the trough (Cmin) levels of E4 in patients with advanced breast cancer, by measuring E4 plasma concentrations before dosing at different time points during the study.
# • to evaluate the safety profile of E4 in patients with advanced breast cancer by: • Performing routine laboratory parameters; • Performing physical examination; • Measuring vital signs; • Measuring electrocardiograms (ECGs); • Recording and monitoring of incidence and severity of clinical AEs and SAEs; • Radiological tumour assessments.
# After completing the phase I part of the study (i.e. 4 weeks of treatment), patients receive further treatment for 8 weeks at their individual phase I dose level (phase IIa part of the study). The phase IIa part of the study includes explorative efficacy assessments to evaluate potential anti-tumour effects of E4 by RECIST criteria based on evaluation of pre- and end of treatment imaging.
# Treatment is escalated in doses of 20 mg, 40 mg and 60 mg E4 across cohorts according to the 3+3 design until the non-tolerable dose is determined or the maximum anticipated dose (MAD) of 60 mg is reached. Patients are treated once daily with an oral administration of E4. […]
# SHBG = biological target: T1, SHBG (Homo sapiens, UniProt P04278); conditions: cited from earlier work
# T1 sequence (P04278 30-402): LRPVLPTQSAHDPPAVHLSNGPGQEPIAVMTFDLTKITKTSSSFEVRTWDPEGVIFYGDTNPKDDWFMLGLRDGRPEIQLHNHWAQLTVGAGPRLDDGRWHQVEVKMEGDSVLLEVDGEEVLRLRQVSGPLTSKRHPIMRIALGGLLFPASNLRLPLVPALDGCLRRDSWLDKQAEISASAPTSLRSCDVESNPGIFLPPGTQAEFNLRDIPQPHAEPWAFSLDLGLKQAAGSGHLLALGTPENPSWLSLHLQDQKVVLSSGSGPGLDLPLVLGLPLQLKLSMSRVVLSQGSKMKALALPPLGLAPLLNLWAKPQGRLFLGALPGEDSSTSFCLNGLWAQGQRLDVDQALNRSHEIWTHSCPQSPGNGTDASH
structure (smiles),measurement,setting,value
"C[C@]12CC[C@@H]3c4ccc(O)cc4CC[C@H]3[C@@H]1[C@@H](O)[C@@H](O)[C@@H]2O [estetrol, estra-1,3,5(10)-triene-3,15α,16α,17β-tetrol]",Cell number per well,[1]; 10^−7 M estetrol,0.49 ×10^5
same,Cell number per well,[1]; 10^−8 M estetrol,0.59 ×10^5
same,Cell number per well,[1]; 10^−9 M estetrol,0.56 ×10^5
same,Cell number per well,[1]; 10^−10 M estetrol,0.63 ×10^5
same,Cell number per well,[1]; 10^−11 M estetrol,3.62 ×10^5
same,Cell number per well,[1]; 10^−12 M estetrol,5.58 ×10^5
same,Inhibition of growth of LTED cells,[1]; 10^−12 M to 10^−7 M,able to inhibit the growth of LTED cells
same,Concentration at which peak inhibition of LTED cell growth is observed,[1]; no further inhibition at higher concentrations,10^−10 M
same,Trough plasma level,[2]; 2 mg daily oral dose,240 pg/mL
same,Cmax plasma level,[2]; 10 mg daily oral dose,"9,500 pg/mL"
same,Trough plasma level,[2]; 20 mg daily oral dose,"1,950 pg/mL"
same,Trough plasma level,[2]; 40 mg daily oral dose,"5,070 pg/mL"
same,Tolerability,"[2]; 2, 10, 20 and 40 mg daily oral",well tolerated
same,Cmax,[2]; 2 mg daily oral dose,1.3 ng/mL
same,Cmax,[2]; 20 mg daily oral dose,23.5 ng/mL
same,Cmax,[2]; 40 mg daily oral dose,82.7 ng/mL
same,Effect on quality of life (QOL),[3],advantageous effect
same,Adverse event considered related to treatment,"[3]; only one related AE, patient",breast tenderness with mild intensity
same,Tolerability of treatment,[3]; patient,tolerated the treatment very well
same,Tumour burden during treatment,[3]; progressive disease at start,remained stable
same,Binding to SHBG,SHBG,does not bind to SHBG
"C[C@]12CC[C@@H]3c4ccc(O)cc4CC[C@H]3[C@@H]1CC[C@@H]2O [estradiol, 17beta-estradiol, reference compound]",Binding to SHBG (affinity),"SHBG; Hammond G L et al., Climacteric 2008",about 40%
